Measured values reported in patent publication US20130059778A1, “Identification of a Genetic Risk Factor for Diabetes” (priority 2010, published 2013).

Experiments:
[1] = test system: islets isolated from ankB (+/+) and (+/−) mice; test: Insulin secretion assay, islets from ankB(+/+) and (+/−) mice; format: cell-based, mouse; conditions: for potentiation of glucose-stimulated insulin release: Glp-1 100 nM
Description: Islets were isolated from ankB littermates and male Wistar rats by pancreatic perifusion as previously described (28). Islets were maintained in culture medium containing 11 mM glucose until the day of the assay. Insulin secretion was assayed in HEPES balanced salt solution (HBSS) (114 mM NaCl, 4.7 mM KCl, 1.2 mM KH2PO4, 1.16 mM MgSO4, 20 mM HEPES, 2.5 mM CaCl2, 25.5 mM NaHCO3, and 0.2% BSA, pH 7.2). Islets were pre-incubated HBSS containing 3 mM glucose for 2 hours. Insulin secretion was then measured by using static incubation for a 1 h period in HBSS containing 3 mM glucose. Islets were then transferred to HBSS containing 16.7 or 8 mM glucose for 1 hour, and then HBSS containing 16.7 or 8 mM glucose plus 0.1 mM carbachol or 100 nM Glp-1 for 1 hour. Following the incubations, islet samples were normalized for insulin content by extraction with 1 M acetic acid in 0.1% BSA. Static incubation samples and extract samples were analyzed for insulin concentrations via radioimmunoassay with the insulin Coat-a-Count kit (Diagnostic Products, Los Angeles). Values presented represent the mean values+/−SEM.

[2] = test system: islets from ankB(+/+) and (+/−) mice; test: Intraislet calcium measurements using Fura-2; format: cell-based, mouse
Description: Islets from 8-10 month ankB(+/+) and (+/−) mice were isolated as described above and incubated overnight in medium containing 11 mM glucose. […] Islets were incubated 45 min at 37° C. Islets were then affixed to small open perifusion chamber (volume 150 μL) with a coverslip bottom using Puramatrix Peptide Hydrigel (BD Biosciences). Chamber was then mounted on a Zeiss Axiovert epifluorescence inverted microscope fitted with a Plan-Neofluar 16x/0.50 objective. The fluorescence (excitation at 355 or 380 nm) was recorded by a slow-scan charged-coupled device (CCD) camera (Andor Technology) and quantitated using AndorIQ software. All perifusions were performed at 37° C. using perfusion buffer containing either 3 mM glucose, 11 mM glucose, 30 mM KCl in 3 mM glucose, or 0.1 mM carbachol in 3 mM glucose. To assay carbachol effects in the absence of calcium, buffer containing 2 mM EGTA and 0 mM Ca^2+ was used. Data represent the mean+/−SEM of 3-7 individual islet recordings/animal using 6 animals/genotype. Significance was calculated using two-tailed T test.

wild type rat islets = test: Insulin secretion assay, rat islets treated with adenovirus (siRNA knockdown / rescue); format: cell-based; conditions: adenoviral delivery to knockdown islets; p=0.03, n=6
Description: INS-1-derived cell line 823/3 was cultured as described previously (28). Small interfering RNA (siRNA) sequences corresponding to rat ankyrin-B siRNA1: GGCCAGAAGATCTCAAGGA (SEQ ID NO:2), siRNA2: GCTGTGTAGCATTTTAACA (SEQ ID NO:3), or a control siRNA which is siRNA 1 mutated at three base sites: GGCCCGAAGAGCTCAAGGA (SEQ ID NO:4), were cloned into vector EHOO6 and used for construction of Ad-ankB siRNA recombinant adenoviruses by the methods described (29). Complementary DNAs encoding human ankyrin-B or ankyrin-B W/W (7, 8) were used to prepare recombinant adenoviruses (AdCMV-h ankB and h ankB RAN) using the AdEasy system (Stratagene catalog number 240010). An adenovirus containing the green fluorescent protein (GFP) gene (AdCMV-_GFP) was used as a control. Purified viruses were incubated with INS-1 823/3 cells or islets at multiplicities of infection (MOI) of 20-50 for 18 h. Assays were undertaken 72 h later.
Islets were isolated from ankB littermates and male Wistar rats by pancreatic perifusion as previously described (28). […] Insulin secretion was then measured by using static incubation for a 1 h period in HBSS containing 3 mM glucose. […] Static incubation samples and extract samples were analyzed for insulin concentrations via radioimmunoassay with the insulin Coat-a-Count kit (Diagnostic Products, Los Angeles). […]

## C[N+](C)(C)CCOC(N)=O [carbachol]
[1]; ankB(+/−) islets vs ankB(+/+), carbachol 0.1 mM, p=0.007, n=6
  reduction in carbachol-stimulated insulin release: 40%
[1]; wild type islets, stimulatory glucose plus carbachol 0.1 mM
  potentiation of insulin release by carbachol: 2.1 fold
[2]; ankB(+/−) islets, carbachol 0.1 mM in buffer containing 5 mM Ca2+
  reduction in Ca2+ release: 64%
[2]; ankB(+/−) vs ankB(+/+) islets, Ca2+-free buffer containing carbachol 0.1 mM
  reduction in intracellular Ca2+ release: ~79%

## full-length human ankyrin-B: full length 220 kD human ankyrin-B, siRNA-resistant, expressed from adenovirus
Wild type rat islets
  rescue of impaired carbachol-mediated insulin release: −40%

## glucagon-like peptide 1 [Glp-1]
[1]; ankB(+/−) islets, p=0.01, n=6
  potentiation of glucose-stimulated insulin release: 2.1 fold
[1]; wild type animals
  potentiation of glucose-stimulated insulin release: ~1.6 fold
